Test results taken from paper PMC10298926, “Biophysical Characterization of the Binding Mechanism between the MATH Domain of SPOP and Its Physiological Partners” (International Journal of Molecular Sciences, 2023).
Where a SMILES comes first, the peptide text is derived from it.

Columns and labels:
[1] = molecular target: T1, SPOP MATH K135A (Homo sapiens, UniProt O43791, C159S/C44S/C68S/C93S/K134A); assay: Stopped-flow pseudo-first-order binding kinetics; details: dansylated Puc, 298 K
T1 construct: engineered MATH domain of SPOP protein (residues 1–182); His-tag; made in house; host or cells: Escherichia coli BL21 (DE3)
Protocol: (§1) To quantitatively address the role of specific residues in the binding mechanism of SPOP MATH, we resorted to taking advantage of the site-directed mutagenesis and generated ten site-directed mutants corresponding to the residues located in the binding pocket of the SPOP MATH domain. In particular, we produced a set of single mutants where residues R71, Y88, F103, Y124, F125, K130, D131, W132, F134, and K135 were substituted with alanine.
(§2) Binding kinetic experiments were performed on an Applied Photophysics DX-17MV stopped-flow apparatus (Applied Photophysics, Leatherhead, UK). Pseudo-first-order binding experiments were performed by mixing a constant concentration (2 μM) of MATH domain with increasing dansylated peptides concentrations, from 2 to 10 μM of Puc and MacroH2A, and 2 to 40 µM of PTEN. The samples were excited at 280 nm, and the emission fluorescence was recorded by using a bandpass 320 nm cutoff filter. The experiments were performed at 298 K. For ionic strength dependence with Puc and MacroH2A, the buffers used were 50 mM sodium-HEPES, pH 7.2, supplemented with 50 mM, 100 mM, 200 mM, or 500 mM of sodium chloride (NaCl). For the PTEN binding salt dependence experiments, lower concentrations of salt were added for the previous buffer list mentioned (10 mM, 25 mM, and 50 mM of sodium chloride). For each acquisition, five traces were collected, averaged, and satisfactorily fitted to a single exponential equation.

[2] = molecular target: SPOP MATH D131A (Homo sapiens, UniProt O43791, D130A, form not given); assay: Stopped-flow pseudo-first-order binding kinetics; details: dansylated Puc, 298 K
Protocol: as §1, §2

[3] = molecular target: SPOP MATH Y125A (Homo sapiens, UniProt O43791, Y123A, form not given); assay: Stopped-flow pseudo-first-order binding kinetics; details: dansylated Puc, 298 K
Protocol: as §1, §2

[4] = molecular target: SPOP MATH Y88A (Homo sapiens, UniProt O43791, Y87A, form not given); assay: Stopped-flow pseudo-first-order binding kinetics; details: dansylated Puc, 298 K
Protocol: as §1, §2

[5] = molecular target: SPOP MATH R71A (Homo sapiens, UniProt O43791, R70A, form not given); assay: Stopped-flow pseudo-first-order binding kinetics; details: dansylated Puc, 298 K
Protocol: as §1, §2

[6] = molecular target: SPOP MATH F134A (Homo sapiens, UniProt O43791, F133A, form not given); assay: Stopped-flow pseudo-first-order binding kinetics; details: dansylated Puc, 298 K
Protocol: as §1, §2

[7] = molecular target: SPOP MATH K130A (Homo sapiens, UniProt O43791, K129A, form not given); assay: Stopped-flow pseudo-first-order binding kinetics; details: dansylated Puc, 298 K
Protocol: as §1, §2

[8] = molecular target: SPOP MATH WT (Homo sapiens, UniProt O43791); assay: Stopped-flow displacement; format: binding; details: preincubated complex (both 8 µM) mixed with 50 μM nondansylated peptide, 298 K, average of five single traces
Chain of SPOP MATH WT (O43791 1-182): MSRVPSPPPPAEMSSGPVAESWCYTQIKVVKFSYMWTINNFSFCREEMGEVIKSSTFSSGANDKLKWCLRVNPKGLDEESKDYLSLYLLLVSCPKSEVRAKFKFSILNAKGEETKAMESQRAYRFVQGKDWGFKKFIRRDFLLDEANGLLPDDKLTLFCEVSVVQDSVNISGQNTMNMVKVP
Protocol: To infer the mechanism of recognition of SPOP MATH, we resorted to performing time-resolved kinetic experiments. SPOP MATH was rapidly mixed with increasing concentrations of dansylated peptides (from 2 to 10 µM for Puc and MacroH2A, and from 2 to 40 µM for PTEN) in a stopped-flow apparatus at 298 K. The binding traces obtained by monitoring the time-resolved fluorescence were satisfactorily fitted to a single exponential equation, allowing calculating the observed rate constants kobs at different peptide concentrations. We then plotted the kobs values over the concentration of dansylated peptide and fitted the data to a simple linear function equation: kobs=kon Peptide+koff where kobs is the observed rate constant; kon and koff are the microscopic association and dissociation rate constants, respectively (Figure 2). The slope and y-axis intercept represent the microscopic association and dissociation rate constant, respectively. To minimize the error associated with the indirect measurement of the dissociation rate constant, we carried out displacement experiments to determine the koff values. The displacement experiments were designed by mixing the preformed complex SPOP MATH-dansylated peptides with a high excess of nondansylated peptide, as described in the Section 4. […] On the basis of these observations, it is possible to conclude that, in the case of binding to MacroH2A and PTEN, there is the presence of an additional step, which escapes detection by stopped-flow experiments and is likely to be negligible in the case of Puc. […] We note that such a case closely resembles the presence of a so-called burst phase, which is frequently observed in protein-folding studies.
Microscopic dissociation rate constants (koff) were directly measured by performing displacement experiments on an Applied Photophysics DX-17MV stopped-flow apparatus (Applied Photophysics). […] The samples were excited at 280 nm and fluorescence emission was collected by using a 330 ± 30 nm bandpass filter. […] The observed rate constants were calculated from the average of five single traces. […]

CC(C)[C@H](NC(=O)[C@H](CCC(=O)O)NC(=O)[C@H](CC(=O)O)NS(=O)(=O)c1cccc2c(N(C)C)cccc12)C(=O)N[C@H](C(=O)N[C@@H](CO)C(=O)N[C@H](C(=O)N[C@H](C(=O)N[C@@H](CO)C(=O)N[C@@H](CO)C(=O)N[C@@H](CO)C(=O)O)[C@@H](C)O)[C@@H](C)O)[C@@H](C)O [Puc] (HELM PEPTIDE1{[CN(C)c1cccc2c(S(=O)(=O)[*:2])cccc12].D.E.V.T.S.T.T.S.S.S}$$$$V2.0)
Kd ([1]; kinetic KD from kon and koff): 7.2 ± 0.4 µM
kon ([1]; stopped-flow, 2 µM MATH domain): 6.3e+06 ± 500000 M⁻¹ s⁻¹
Kd ([2]; kinetic KD from kon and koff): 13.3 ± 0.2 µM
kon ([2]; stopped-flow, 2 µM MATH domain): 1.82e+07 ± 100000 M⁻¹ s⁻¹
Kd ([3]; kinetic KD from kon and koff): 11.7 ± 0.2 µM
kon ([3]; stopped-flow, 2 µM MATH domain): 6.71e+06 ± 20000 M⁻¹ s⁻¹
Kd ([4]; kinetic KD from kon and koff): 21 ± 4 µM
kon ([4]; stopped-flow, 2 µM MATH domain): 1.44e+07 ± 800000 M⁻¹ s⁻¹
Kd ([5]; kinetic KD from kon and koff): 3.8 ± 0.1 µM
kon ([5]; stopped-flow, 2 µM MATH domain): 8.8e+06 ± 500000 M⁻¹ s⁻¹
Kd ([6]; kinetic KD from kon and koff): 1.7 ± 0.1 µM
kon ([6]; stopped-flow, 2 µM MATH domain): 9.4e+06 ± 200000 M⁻¹ s⁻¹
Kd ([7]; kinetic KD from kon and koff): 9.5 ± 0.1 µM
kon ([7]; stopped-flow, 2 µM MATH domain): 1.3e+07 ± 2e+06 M⁻¹ s⁻¹
koff [8]: 26.1 ± 0.1 s⁻¹
